Laboratory results: paper PMC5446775, “Interactions of 172 plant extracts with human organic anion transporter 1 (SLC22A6) and 3 (SLC22A8): a study on herb-drug interactions” (PeerJ, 2017)
Where “and” joins values, the source holds several entries; their conditions need not be identical. Equal values may be shown once.

Assays:
hOAT3 = biological target: T1, hOAT3 (Homo sapiens, UniProt Q8TCC7); assay: Time course and uptake kinetics of 6-CF in HEK-OAT3 cells
T1 sequence (Q8TCC7 1-542): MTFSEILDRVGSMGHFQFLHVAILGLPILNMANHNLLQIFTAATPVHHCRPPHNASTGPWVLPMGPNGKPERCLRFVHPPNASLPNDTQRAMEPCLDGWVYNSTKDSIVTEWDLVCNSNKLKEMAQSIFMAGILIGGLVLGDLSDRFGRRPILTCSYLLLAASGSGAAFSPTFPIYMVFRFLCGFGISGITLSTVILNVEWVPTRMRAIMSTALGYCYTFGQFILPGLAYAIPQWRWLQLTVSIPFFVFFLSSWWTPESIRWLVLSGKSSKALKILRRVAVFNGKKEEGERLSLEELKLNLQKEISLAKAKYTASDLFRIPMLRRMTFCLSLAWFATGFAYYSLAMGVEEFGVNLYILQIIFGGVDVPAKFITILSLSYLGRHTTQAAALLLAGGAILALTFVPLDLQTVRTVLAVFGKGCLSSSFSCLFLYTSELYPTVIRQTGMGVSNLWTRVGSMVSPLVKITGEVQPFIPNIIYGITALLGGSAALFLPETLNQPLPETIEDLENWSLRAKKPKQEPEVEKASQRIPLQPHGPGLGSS

hOAT1 = biological target: T2, hOAT1 (Homo sapiens, UniProt Q4U2R8); assay: Time course and uptake kinetics of 6-CF in HEK-OAT1 cells
T2 sequence (Q4U2R8 1-563): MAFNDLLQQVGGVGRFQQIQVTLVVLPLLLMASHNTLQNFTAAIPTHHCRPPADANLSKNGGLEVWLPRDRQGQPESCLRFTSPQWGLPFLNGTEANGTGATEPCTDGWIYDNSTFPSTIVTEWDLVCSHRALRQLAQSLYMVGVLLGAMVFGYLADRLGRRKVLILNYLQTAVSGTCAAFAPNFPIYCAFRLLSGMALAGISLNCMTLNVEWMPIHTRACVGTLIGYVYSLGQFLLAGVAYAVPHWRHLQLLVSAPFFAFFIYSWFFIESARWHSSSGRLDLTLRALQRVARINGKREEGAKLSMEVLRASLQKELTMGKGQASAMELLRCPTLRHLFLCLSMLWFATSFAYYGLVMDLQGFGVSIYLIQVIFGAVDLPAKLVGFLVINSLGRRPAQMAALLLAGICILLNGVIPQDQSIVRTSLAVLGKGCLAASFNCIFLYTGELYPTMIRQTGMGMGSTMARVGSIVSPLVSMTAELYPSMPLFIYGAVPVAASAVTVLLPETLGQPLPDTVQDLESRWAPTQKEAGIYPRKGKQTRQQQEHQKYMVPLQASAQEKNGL

HEK-EV cells = assay: Time course of 6-CF uptake in HEK-EV cells; type: cell-based; design: unit not given beside the values
[1] = substrate: O=C(O)c1ccc(C(=O)O)c(-c2c3ccc(=O)cc-3oc3cc(O)ccc23)c1; assay: cells, lysate or membranes; conditions: pH 7.2
[2] = other: HEK-OAT1, 6-CF 0–500 μM, 4 min
[3] = other: HEK-OAT3, 6-CF 0–500 μM, 10 min

For `O=C(O)c1ccc(C(=O)O)c(-c2c3ccc(=O)cc-3oc3cc(O)ccc23)c1` [6-CF, 6-Carboxyfluorescein], the “6-CF uptake, time course (replicates)” value (hOAT3; HEK-OAT3, 0 min) was -0.2934 and -0.3139 and -0.3557, the “6-CF uptake, saturation curve (replicates)” value (from here on “6-CF uptake, saturation curve”) (hOAT3; HEK-OAT3, 6-CF 0.4882813 uM) was 0.3918 and 0.3329 and 0.4388 and the “6-CF uptake, saturation curve” value (hOAT3; HEK-OAT3, 6-CF 0.9765625 uM) was 0.698 and 0.5037 and 0.6877. The “6-CF uptake, saturation curve” value (hOAT3; HEK-OAT3, 6-CF 1.953125 uM) was 1.795 and 1.575 and 1.458, the “6-CF uptake, saturation curve” value (hOAT3; HEK-OAT3, 6-CF 3.90625 uM) was 4.35 and 4.472 and 4.585 and the “6-CF uptake, saturation curve” value (hOAT3; HEK-OAT3, 6-CF 7.8125 uM) was 6.975 and 7.312 and 7.453. For the same molecule, the “6-CF uptake, saturation curve” value (hOAT3; HEK-OAT3, 6-CF 15.625 uM) was 11.68 and 13.8 and 13.42, the “6-CF uptake, saturation curve” value (hOAT3; HEK-OAT3, 6-CF 31.25 uM) was 16.87 and 19.83 and 17.42 and the “6-CF uptake, saturation curve” value (hOAT3; HEK-OAT3, 6-CF 62.5 uM) was 24.87 and 28.11 and 27.05. For the same molecule, the “6-CF uptake, saturation curve” value (hOAT3; HEK-OAT3, 6-CF 125 uM) was 31.12 and 34.21 and 34.22, the “6-CF uptake, saturation curve” value (hOAT3; HEK-OAT3, 6-CF 250 uM) was 38.59 and 48.68 and 49.93 and the “6-CF uptake, saturation curve” value (hOAT3; HEK-OAT3, 6-CF 500 uM) was 59.67 and 68.36 and 60.32. For the same molecule, the “6-CF uptake, time course (replicates)” value (hOAT3; HEK-OAT3, 1 min) was 15.96 and 14.63 and 12.89, the “6-CF uptake, time course (replicates)” value (hOAT3; HEK-OAT3, 3 min) was 23.66 and 23.83 and 22.4238 and the “6-CF uptake, time course (replicates)” value (hOAT3; HEK-OAT3, 5 min) was 30.9 and 31.16 and 28.05. For the same molecule, the “6-CF uptake, time course (replicates)” value (hOAT3; HEK-OAT3, 7 min) was 39.99 and 36.19 and 41.91, the “6-CF uptake, time course (replicates)” value (hOAT3; HEK-OAT3, 10 min) was 50.24 and 52.458 and 60.541 and the “6-CF uptake, time course (replicates)” value (hOAT3; HEK-OAT3, 15 min) was 52.72 and 56.05 and 66.23. The “6-CF uptake, time course (replicates)” value (hOAT3; HEK-OAT3, 20 min) was 78 and 76.09 and 111.922, the “6-CF uptake, saturation curve” value (hOAT1; HEK-OAT1, 6-CF 0.4882813 uM) was 7.173 and 7.446 and 6.987 and the “6-CF uptake, saturation curve” value (hOAT1; HEK-OAT1, 6-CF 0.9765625 uM) was 12.8274 and 13.23 and 13. The “6-CF uptake, saturation curve” value (hOAT1; HEK-OAT1, 6-CF 1.953125 uM) was 27.87 and 28.3406 and 28.05, the “6-CF uptake, saturation curve” value (hOAT1; HEK-OAT1, 6-CF 3.90625 uM) was 46.16 and 53.71 and 47.47 and the “6-CF uptake, saturation curve” value (hOAT1; HEK-OAT1, 6-CF 7.8125 uM) was 70.1 and 79.19 and 68.4603. For the same molecule, the “6-CF uptake, saturation curve” value (hOAT1; HEK-OAT1, 6-CF 15.625 uM) was 99.74 and 104.681 and 93.41, the “6-CF uptake, saturation curve” value (hOAT1; HEK-OAT1, 6-CF 31.25 uM) was 121.9009 and 125.5377 and 115.7964 and the “6-CF uptake, saturation curve” value (hOAT1; HEK-OAT1, 6-CF 62.5 uM) was 137.2491 and 143.8246 and 138.2214. For the same molecule, the “6-CF uptake, saturation curve” value (hOAT1; HEK-OAT1, 6-CF 125 uM) was 148.3736 and 150.9828 and 144.0527, the “6-CF uptake, saturation curve” value (hOAT1; HEK-OAT1, 6-CF 250 uM) was 164.0673 and 159.2171 and 152.7382 and the “6-CF uptake, saturation curve” value (hOAT1; HEK-OAT1, 6-CF 500 uM) was 180.965 and 184.434 and 169.8854. The “6-CF uptake, time course (replicates)” value (hOAT1; HEK-OAT1, 1 min) was 103.0408 and 111.2811 and 116.9642, the “6-CF uptake, time course (replicates)” value (hOAT1; HEK-OAT1, 2 min) was 184.2101 and 188.6327 and 203.3025 and the “6-CF uptake, time course (replicates)” value (hOAT1; HEK-OAT1, 4 min) was 263.4748 and 273.8167 and 274.8526. For the same molecule, the “6-CF uptake, time course (replicates)” value (hOAT1; HEK-OAT1, 6 min) was 366.3584 and 347.2089 and 351.4604, the “6-CF uptake, time course (replicates)” value (hOAT1; HEK-OAT1, 8 min) was 433.3665 and 398.0952 and 430.7222 and the “6-CF uptake, time course (replicates)” value (hOAT1; HEK-OAT1, 10 min) was 468.8556 and 433.6342 and 503.1246. The “6-CF uptake, time course (replicates)” value (hOAT1; HEK-OAT1, 15 min) was 515.439 and 498.8523, the “6-CF uptake, time course (replicates)” value (HEK-EV cells; EV (run with HEK-OAT3), 0 min) was -0.296 and -0.1638 and -0.3041 and the “6-CF uptake, time course (replicates)” value (HEK-EV cells; EV (run with HEK-OAT3), 1 min) was 0.1864 and 0.1215 and 0.1926. For the same molecule, the “6-CF uptake, time course (replicates)” value (HEK-EV cells; EV (run with HEK-OAT3), 3 min) was 1.062 and 1.738 and 0.6624, the “6-CF uptake, time course (replicates)” value (HEK-EV cells; EV (run with HEK-OAT3), 5 min) was 1.6 and 1.946 and 1.9 and the “6-CF uptake, time course (replicates)” value (HEK-EV cells; EV (run with HEK-OAT3), 7 min) was 3.081 and 4.38 and 4.257. The “6-CF uptake, time course (replicates)” value (HEK-EV cells; EV (run with HEK-OAT3), 10 min) was 12.29 and 7.712 and 11.67, the “6-CF uptake, time course (replicates)” value (HEK-EV cells; EV (run with HEK-OAT3), 15 min) was 22.75 and 12.81 and 21.0992 and the “6-CF uptake, time course (replicates)” value (HEK-EV cells; EV (run with HEK-OAT3), 20 min) was 40.6 and 70.13 and 42.87. The “6-CF uptake, time course (replicates)” value (HEK-EV cells; HEK-EV (run with HEK-OAT1), 1 min) was 2.029 and 2.127 and 1.449, the “6-CF uptake, time course (replicates)” value (HEK-EV cells; HEK-EV (run with HEK-OAT1), 2 min) was 3.517 and 2.496 and the “6-CF uptake, time course (replicates)” value (HEK-EV cells; HEK-EV (run with HEK-OAT1), 4 min) was 3.274 and 1.899. The “6-CF uptake, time course (replicates)” value (HEK-EV cells; HEK-EV (run with HEK-OAT1), 6 min) was 2.9 and 5.179 and 2.231, the “6-CF uptake, time course (replicates)” value (HEK-EV cells; HEK-EV (run with HEK-OAT1), 8 min) was 2.807 and 2.226 and 2.134 and the “6-CF uptake, time course (replicates)” value (HEK-EV cells; HEK-EV (run with HEK-OAT1), 10 min) was 6.849 and 3.392. The “6-CF uptake, time course (replicates)” value (HEK-EV cells; HEK-EV (run with HEK-OAT1), 15 min) was 2.156 and 2.367 and 2.88.

B1: hOAT1 (Homo sapiens) (protein)
chain: MAFNDLLQQVGGVGRFQQIQVTLVVLPLLLMASHNTLQNFTAAIPTHHCRPPADANLSKNGGLEVWLPRDRQGQPESCLRFTSPQWGLPFLNGTEANGTGATEPCTDGWIYDNSTFPSTIVTEWDLVCSHRALRQLAQSLYMVGVLLGAMVFGYLADRLGRRKVLILNYLQTAVSGTCAAFAPNFPIYCAFRLLSGMALAGISLNCMTLNVEWMPIHTRACVGTLIGYVYSLGQFLLAGVAYAVPHWRHLQLLVSAPFFAFFIYSWFFIESARWHSSSGRLDLTLRALQRVARINGKREEGAKLSMEVLRASLQKELTMGKGQASAMELLRCPTLRHLFLCLSMLWFATSFAYYGLVMDLQGFGVSIYLIQVIFGAVDLPAKLVGFLVINSLGRRPAQMAALLLAGICILLNGVIPQDQSIVRTSLAVLGKGCLAASFNCIFLYTGELYPTMIRQTGMGMGSTMARVGSIVSPLVSMTAELYPSMPLFIYGAVPVAASAVTVLLPETLGQPLPDTVQDLESRWAPTQKEAGIYPRKGKQTRQQQEHQKYMVPLQASAQEKNGL
For B1, the Km [1, 2] was 10.86 ± 0.64 µM and the Vmax [1, 2] was 168.5 ± 2.27 pmol/mg protein/min.

B2: hOAT3 (Homo sapiens) (protein)
chain: MTFSEILDRVGSMGHFQFLHVAILGLPILNMANHNLLQIFTAATPVHHCRPPHNASTGPWVLPMGPNGKPERCLRFVHPPNASLPNDTQRAMEPCLDGWVYNSTKDSIVTEWDLVCNSNKLKEMAQSIFMAGILIGGLVLGDLSDRFGRRPILTCSYLLLAASGSGAAFSPTFPIYMVFRFLCGFGISGITLSTVILNVEWVPTRMRAIMSTALGYCYTFGQFILPGLAYAIPQWRWLQLTVSIPFFVFFLSSWWTPESIRWLVLSGKSSKALKILRRVAVFNGKKEEGERLSLEELKLNLQKEISLAKAKYTASDLFRIPMLRRMTFCLSLAWFATGFAYYSLAMGVEEFGVNLYILQIIFGGVDVPAKFITILSLSYLGRHTTQAAALLLAGGAILALTFVPLDLQTVRTVLAVFGKGCLSSSFSCLFLYTSELYPTVIRQTGMGVSNLWTRVGSMVSPLVKITGEVQPFIPNIIYGITALLGGSAALFLPETLNQPLPETIEDLENWSLRAKKPKQEPEVEKASQRIPLQPHGPGLGSS
B2 was tested, and the Km [1, 3] was 112.9 ± 14.24 µM and the Vmax [1, 3] was 71.89 ± 3.42 pmol/mg protein/min.
